According to patent US20240174723A1, “STAPLED ANTIMICROBIAL PEPTIDES (STAMPS) AND USES THEREOF” (Lytica Therapeutics, Inc., priority 2021, published 2024):
In brackets after ≈: the same amount, converted by molar mass. Positions of bridges follow the written chain, without caps; N, C: chain ends. Non-standard residues stand in square brackets, D forms with d. Residues, ends and D or L forms follow the SMILES beside them. Phe(4-tBu) = CC(C)(C)c1ccc(C[C@H](N)C(=O)O)cc1; S5 = C=CCCC[C@](C)(N)C(=O)O; Dab = NCC[C@H](N)C(=O)O

How the values were obtained:
in vitro [1] = type: cell-based; settings: human, Inhibitory Concentration at 50% Cytotoxicity (IC50) Human Liver Cells (HepG2)
How it was run: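 Cytotoxicity read by CellTiter-Glo luminescence after 48 h at 37 °C exposure to serially diluted StAMPs or vehicle. HepG2 cells were grown in EMEM plus 10% FBS and given 4 h to attach before dosing; peptides came from a 5 mg/mL aqueous stock.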

K. pneumoniae = type: cell-based, Klebsiella pneumoniae
How it was run: (§1)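 Colonies are grown overnight at 37 °C, diluted and regrown 3-4 h. Bacteria in MHB or MHB II are then added to serial peptide dilutions to reach 5×10^5 CFU/ml. Plates are incubated 20-24 h at 37 °C and scored for the lowest concentration without visible growth.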

S. aureus = type: cell-based, Staphylococcus aureus
How it was run: as §1

E. coli = type: cell-based, Escherichia coli
How it was run: as §1

P. aeruginosa = type: cell-based, Pseudomonas aeruginosa
How it was run: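 MIC taken as lowest peptide concentration with no visible growth after 20-24 h at 37 °C. Peptide serial dilutions from water stocks met P. aeruginosa inoculum (5×10^5 CFU/ml final) in MHB or MHB II, per a CLSI-adapted microbroth protocol.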

in vitro [2] = type: cell-based; settings: human
How it was run: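 LDH release (absorbance at 490 nm) measured in the media of cells treated with serially diluted StAMPs or vehicle at 37 °C: 90 min for renal RPTEC, 48 h for liver HepG2. Cells were seeded overnight beforehand and media refreshed before dosing.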

A. baumannii = type: cell-based, Acinetobacter baumannii
How it was run: as §1

Minimum Inhibitory Concentration (MIC) K. pneumoniae (K. pneumoniae) [µg/mL] | Minimum Inhibitory Concentration (MIC) S. aureus (S. aureus) [µg/mL] | Minimum Inhibitory Concentration (MIC) E. coli (E. coli) [µg/mL] | Minimum Inhibitory Concentration (MIC) P. aeruginosa (P. aeruginosa) [µg/mL] | IC50 at 90 min (in vitro [2]) [µg/mL] | Minimum Inhibitory Concentration (MIC) A. baumannii (A. baumannii) [µg/mL] | Compound | IC50 at 48 hours (in vitro [1]) [µg/mL]
4 | 64 | 2 | 4 | 116 (≈ 46 µM) | 2 | CC(C)[C@@H]1NC(=O)[C@@](C)(NC(=O)[C@H](C)NC(=O)[C@H](CCCCN)NC(=O)CNC(=O)[C@H](Cc2ccccc2)NC(=O)[C@H](CCCCN)NC(=O)[C@H](CCCCN)NC(=O)[C@H](CCCCN)NC(=O)[C@H](CO)NC(=O)[C@H](CCCCN)NC(=O)[C@]2(C)CCCC=CCCC[C@](C)(NC(=O)CN)C(=O)NCC(=O)N[C@@H](CCCCN)C(=O)N[C@@H](Cc3ccccc3)C(=O)N2)CCCC=CCCC[C@@](C)(C(=O)N[C@@H](C)C(=O)N[C@@H](CCCCN)C(=O)N[C@@H](CCCCN)C(N)=O)NC(=O)[C@H](CCC(=O)O)NC(=O)CNC1=O [compound 2] (H-G[S5]GKF[S5]KSKKKFGKA[S5]VGE[S5]AKK-NH2; staple 2-6, 16-20) | 143 (≈ 56.7 µM)
8 | 16 | 4 | 8 | 9 (≈ 3.3 µM) | 4 | CC(C)[C@@H]1NC(=O)[C@H](C(C)C)NC(=O)[C@@](C)(NC(=O)[C@H](C)NC(=O)[C@H](CCCCN)NC(=O)CNC(=O)[C@H](Cc2ccc(C(C)(C)C)cc2)NC(=O)[C@H](CCCCN)NC(=O)[C@H](CCCCN)NC(=O)[C@H](CCCCN)NC(=O)[C@H](CCCCN)NC(=O)[C@H](Cc2c[nH]cn2)NC(=O)[C@]2(C)CCCC=CCCC[C@](C)(NC(=O)CN)C(=O)NCC(=O)N[C@@H](CCCCN)C(=O)N[C@@H](Cc3ccc(C(C)(C)C)cc3)C(=O)N2)CCCC=CCCC[C@@](C)(C(=O)N[C@@H](C)C(=O)N[C@@H](CCCCN)C(=O)N[C@@H](CCCCN)C(N)=O)NC(=O)[C@H](CCC(=O)O)NC1=O [compound 31] (H-G[S5]GK[Phe(4-tBu)][S5]HKKKK[Phe(4-tBu)]GKA[S5]VVE[S5]AKK-NH2; staple 2-6, 16-20) | 101 (≈ 37 µM)
8 | 16 | 4 | 16 | 27 (≈ 10.4 µM) | 4 | CC(C)[C@@H]1NC(=O)[C@@](C)(NC(=O)[C@H](C)NC(=O)[C@H](CCCCN)NC(=O)CNC(=O)[C@H](Cc2ccccc2)NC(=O)[C@H](CCCCN)NC(=O)[C@H](CCCCN)NC(=O)[C@H](CCCCN)NC(=O)[C@H](CO)NC(=O)[C@H](Cc2c[nH]cn2)NC(=O)[C@]2(C)CCCC=CCCC[C@](C)(NC(=O)CN)C(=O)NCC(=O)N[C@@H](CCCCN)C(=O)N[C@@H](Cc3ccccc3)C(=O)N2)CCCC=CCCC[C@@](C)(C(=O)N[C@@H](C)C(=O)N[C@@H](CCCCN)C(=O)N[C@@H](Cc2c[nH]c3ccccc23)C(N)=O)NC(=O)[C@H](CCC(=O)O)NC(=O)CNC1=O [compound 67] (H-G[S5]GKF[S5]HSKKKFGKA[S5]VGE[S5]AKW-NH2; staple 2-6, 16-20) | 52 (≈ 20.1 µM)
32 | >64 | 2 | 8 | 294 (≈ 116 µM) | 2 | CC(C)[C@@H]1NC(=O)[C@@](C)(NC(=O)[C@H](C)NC(=O)[C@H](CCCCN)NC(=O)CNC(=O)[C@H](Cc2ccccc2)NC(=O)[C@H](CCCCN)NC(=O)[C@H](CCCCN)NC(=O)[C@H](CCCCN)NC(=O)[C@H](CO)NC(=O)[C@H](Cc2c[nH]cn2)NC(=O)[C@]2(C)CCCC=CCCC[C@](C)(NC(=O)CN)C(=O)NCC(=O)N[C@@H](CCCCN)C(=O)N[C@@H](Cc3ccccc3)C(=O)N2)CCCC=CCCC[C@@](C)(C(=O)N[C@@H](C)C(=O)N[C@@H](CCCCN)C(=O)N[C@@H](CCCCN)C(N)=O)NC(=O)[C@H](CCC(=O)O)NC(=O)CNC1=O [compound 1] (H-G[S5]GKF[S5]HSKKKFGKA[S5]VGE[S5]AKK-NH2; staple 2-6, 16-20) | 391 (≈ 154 µM)

The remaining lines, values behind:

Compound | Minimum Inhibitory Concentration (MIC) K. pneumoniae (K. pneumoniae) [µg/mL] | Minimum Inhibitory Concentration (MIC) S. aureus (S. aureus) [µg/mL] | Minimum Inhibitory Concentration (MIC) E. coli (E. coli) [µg/mL] | Minimum Inhibitory Concentration (MIC) P. aeruginosa (P. aeruginosa) [µg/mL] | IC50 at 90 min (in vitro [2]) [µg/mL] | Minimum Inhibitory Concentration (MIC) A. baumannii (A. baumannii) [µg/mL] | IC50 at 48 hours (in vitro [1]) [µg/mL]
CC(C)[C@@H]1NC(=O)[C@@](C)(NC(=O)[C@H](C)NC(=O)[C@H](CCCCN)NC(=O)CNC(=O)[C@H](Cc2ccccc2)NC(=O)[C@H](CCCCN)NC(=O)[C@H](CCCCN)NC(=O)[C@H](CCCCN)NC(=O)[C@H](CC(N)=O)NC(=O)[C@H](Cc2c[nH]cn2)NC(=O)[C@]2(C)CCCC=CCCC[C@](C)(NC(=O)CN)C(=O)NCC(=O)N[C@@H](CCCCN)C(=O)N[C@@H](Cc3ccccc3)C(=O)N2)CCCC=CCCC[C@@](C)(C(=O)N[C@@H](C)C(=O)N[C@@H](CCCCN)C(=O)N[C@@H](CCCCN)C(N)=O)NC(=O)[C@H](CCC(=O)O)NC(=O)CNC1=O [compound 6] (H-G[S5]GKF[S5]HNKKKFGKA[S5]VGE[S5]AKK-NH2; staple 2-6, 16-20) | >64 | >64 | 4 | 8 | > 200 | 4 | > 200
CC(C)[C@@H]1NC(=O)[C@@](C)(NC(=O)[C@H](C)NC(=O)[C@H](CCN)NC(=O)CNC(=O)[C@H](Cc2ccccc2)NC(=O)[C@H](CCN)NC(=O)[C@H](CCN)NC(=O)[C@H](CCN)NC(=O)[C@H](CCN)NC(=O)[C@H](CCN)NC(=O)[C@]2(C)CCCC=CCCC[C@](C)(NC(=O)CN)C(=O)NCC(=O)N[C@@H](CCN)C(=O)N[C@@H](Cc3ccccc3)C(=O)N2)CCCC=CCCC[C@@](C)(C(=O)N[C@@H](C)C(=O)N[C@@H](CCN)C(=O)N[C@@H](CCN)C(N)=O)NC(=O)[C@H](CCC(=O)O)NC(=O)CNC1=O [compound 23] (H-G[S5]G[Dab]F[S5][Dab][Dab][Dab][Dab][Dab]FG[Dab]A[S5]VGE[S5]A[Dab][Dab]-NH2; staple 2-6, 16-20) | 32 | 64 | 8 | 2 | 84 (≈ 36.3 µM) | 8 | 39 (≈ 16.9 µM)
CC(C)[C@@H]1NC(=O)[C@@](C)(NC(=O)[C@H](C)NC(=O)[C@H](CCCCN)NC(=O)CNC(=O)[C@H](Cc2ccccc2)NC(=O)[C@H](CCCCN)NC(=O)[C@H](CCCCN)NC(=O)[C@H](CCCCN)NC(=O)[C@H](CO)NC(=O)[C@H](Cc2c[nH]cn2)NC(=O)[C@]2(C)CCCC=CCCC[C@](C)(NC(=O)CN)C(=O)NCC(=O)N[C@@H](CCCCN)C(=O)N[C@@H](Cc3ccccc3)C(=O)N2)CCCC=CCCC[C@@](C)(C(=O)N[C@@H](C)C(=O)N[C@@H](CCCCN)C(=O)N[C@@H](CCCCN)C(N)=O)NC(=O)[C@H](CC(N)=O)NC(=O)CNC1=O [compound 18] (H-G[S5]GKF[S5]HSKKKFGKA[S5]VGN[S5]AKK-NH2; staple 2-6, 16-20) | 64 | >64 | 4 | 4 | ~200 (≈ 79.5 µM) | 2 | > 200
